Measured values: patent US20250313572A1, “MACROCYCLIC MCL-1 INHIBITORS AND METHODS OF USE” (AbbVie Inc., priority 2017, published 2025)
Where two headings read alike, the source gives them in different places.

Columns and labels:
GST-MCL-1 = GST-MCL-1 (Homo sapiens, UniProt Q07820); assay: TR-FRET MCL-1 binding assay (competition with probe F-Bak)
Outline: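 Displacement of F-Bak from GST-MCL-1 is detected by time-resolved FRET with a Tb-labelled anti-GST antibody, with excitation 340/35 nm and emission 520/525 and 495/510 nm, after 2 hours at room temperature. Compounds were titrated in 11 three-fold steps starting at 25 μM final, in buffer alone or in 10% HS.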

[1] = tested on: AMO-1 human multiple myeloma tumor cell line; assay: AMO-1 cell viability assay (CellTiter-Glo, 24 hours); format: cell-based; conditions: Homo sapiens, AMO1, 24 h, read-out: AMO-1 Viability IC50 (μM, 10% FBS), 10% FBS, 24 hours of compound treatment
[2] = tested on: NCI-H929 human multiple myeloma tumor cell line; assay: NCI-H929 cell viability assay (CellTiter-Glo, 24 hours); format: cell-based; conditions: Homo sapiens, NCI-H929, 24 h, read-out: H929 Viability IC50 (μM, 10% FBS), 10% FBS, 24 hours of compound treatment
[3] = MCL-1 Binding Ki (nM, 10% HS), in the presence of 10% HS (human serum)
[4] = without HS, read-out: MCL-1 Binding Ki

Chain of GST-MCL-1 (Q07820 whole entry): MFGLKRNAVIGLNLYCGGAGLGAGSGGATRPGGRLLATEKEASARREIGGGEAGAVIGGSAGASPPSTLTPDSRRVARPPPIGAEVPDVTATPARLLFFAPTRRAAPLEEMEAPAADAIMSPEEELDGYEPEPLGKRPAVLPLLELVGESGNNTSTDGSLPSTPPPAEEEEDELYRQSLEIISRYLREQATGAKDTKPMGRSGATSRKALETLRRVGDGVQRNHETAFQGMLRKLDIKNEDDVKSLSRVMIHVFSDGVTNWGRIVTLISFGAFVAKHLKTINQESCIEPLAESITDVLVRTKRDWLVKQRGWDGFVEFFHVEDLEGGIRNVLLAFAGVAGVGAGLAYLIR

| Structure (SMILES) | Ki (GST-MCL-1; [3]) | Ki (GST-MCL-1; [4]) | IC50 [1] | IC50 [2] | Ki (GST-MCL-1; read-out: MCL-1 Binding Ki (nM, 10% HS), in the presence of 10% HS (human serum)) |
| --- | --- | --- | --- | --- | --- |
| COCCOCCOC[C@H]1CC=C(c2nccc(COc3ccc4cc3C[C@H](C(=O)O)Oc3ncnc5sc(-c6ccc(F)cc6)c(c35)-c3c(C)c(Cl)c(c(Cl)c3C)O[C@H](CN3CCN(C)CC3)CO4)n2)CC1 [Example 127, (7R,16R)-19,23-dichloro-1-(4-fluorophenyl)-10-({2-[(4R)-4-{[2-(2-methoxyethoxy)ethoxy]methyl}cyclohex-1-en-1-yl]pyrimidin-4-yl}methoxy)-20,22-dimethyl-16-[(4-methylpiperazin-1-yl)methyl]-7,8,15,16-tetrahydro-18,21-etheno-13,9-(metheno)-6,14,17-trioxa-2-thia-3,5-diazacyclononadeca[1,2,3-cd]indene-7-carboxylic acid] | 0.339 nM | 0.028 nM | 124 pM | 0.000385 µM |  |
| COCCOCCOC[C@@H]1CC=C(c2nccc(COc3ccc4cc3C[C@H](C(=O)O)Oc3ncnc5sc(-c6ccc(F)cc6)c(c35)-c3c(C)c(Cl)c(c(Cl)c3C)O[C@H](CN3CCN(C)CC3)CO4)n2)CC1 [Example 128, (7R,16R)-19,23-dichloro-1-(4-fluorophenyl)-10-({2-[(4S)-4-{[2-(2-methoxyethoxy)ethoxy]methyl}cyclohex-1-en-1-yl]pyrimidin-4-yl}methoxy)-20,22-dimethyl-16-[(4-methylpiperazin-1-yl)methyl]-7,8,15,16-tetrahydro-18,21-etheno-13,9-(metheno)-6,14,17-trioxa-2-thia-3,5-diazacyclononadeca[1,2,3-cd]indene-7-carboxylic Acid] | 0.275 nM | 0.027 nM | 93.9 pM | 0.000313 µM |  |
| Cc1c(Cl)c2c(Cl)c(C)c1-c1c(-c3ccc(F)cc3)sc3ncnc(c13)O[C@@H](C(=O)O)Cc1cc(ccc1OCc1ccnc(-c3ccc(CN4CCOCCOCCOCCOCC4)cc3)n1)OC[C@@H](CN1CCN(C)CC1)O2 [Example 129, (7R,16R)-19,23-dichloro-1-(4-fluorophenyl)-20,22-dimethyl-16-[(4-methylpiperazin-1-yl)methyl]-10-[(2-{4-[(1,4,7,10-tetraoxa-13-azacyclopentadecan-13-yl)methyl]phenyl}pyrimidin-4-yl)methoxy]-7,8,15,16-tetrahydro-18,21-etheno-13,9-(metheno)-6,14,17-trioxa-2-thia-3,5-diazacyclononadeca[1,2,3-cd]indene-7-carboxylic Acid] | 0.064 nM | 0.002 nM | 144 pM | 0.000562 µM |  |
| COCCOCCOCCO[C@H]1CC[C@H](c2nccc(COc3ccc4cc3C[C@H](C(=O)O)Oc3ncnc5sc(C6CCC6)c(c35)-c3c(C)c(Cl)c(c(Cl)c3C)O[C@H](CN3CCN(C)CC3)CO4)n2)CC1 [Example 131, (7R,16R)-19,23-dichloro-1-cyclobutyl-10-({2-[(1r,4r)-4-{2-[2-(2-methoxyethoxy)ethoxy]ethoxy}cyclohexyl]pyrimidin-4-yl}methoxy)-20,22-dimethyl-16-[(4-methylpiperazin-1-yl)methyl]-7,8,15,16-tetrahydro-18,21-etheno-13,9-(metheno)-6,14,17-trioxa-2-thia-3,5-diazacyclononadeca[1,2,3-cd]indene-7-carboxylic Acid] | 1.14 nM | 0.024 nM | 367 pM | 0.000585 µM |  |
| CO[C@@H]1CO[C@H]2[C@@H]1OC[C@H]2OCCOCCOc1nccc(COc2ccc3cc2C[C@H](C(=O)O)Oc2ncnc4sc(-c5ccc(F)cc5)c(c24)-c2c(C)c(Cl)c(c(Cl)c2C)O[C@H](CN2CCN(C)CC2)CO3)n1 [Example 133, (7R,16R)-19,23-dichloro-1-(4-fluorophenyl)-10-({2-[2-(2-{[(3R,3aR,6R,6aR)-6-methoxyhexahydrofuro[3,2-b]furan-3-yl]oxy}ethoxy)ethoxy]pyrimidin-4-yl}methoxy)-20,22-dimethyl-16-[(4-methylpiperazin-1-yl)methyl]-7,8,15,16-tetrahydro-18,21-etheno-13,9-(metheno)-6,14,17-trioxa-2-thia-3,5-diazacyclononadeca[1,2,3-cd]indene-7-carboxylic Acid] | 0.168 nM | 0.044 nM | 3240 pM | 0.00879 µM |  |
| CO[C@@H]1CO[C@H]2[C@@H]1OC[C@H]2OCCOc1nccc(COc2ccc3cc2C[C@H](C(=O)O)Oc2ncnc4sc(-c5ccc(F)cc5)c(c24)-c2c(C)c(Cl)c(c(Cl)c2C)O[C@H](CN2CCN(C)CC2)CO3)n1 [Example 134, (7R,16R)-19,23-dichloro-1-(4-fluorophenyl)-10-{[2-(2-{[(3R,3aR,6R,6aR)-6-methoxyhexahydrofuro[3,2-b]furan-3-yl]oxy}ethoxy)pyrimidin-4-yl]methoxy}-20,22-dimethyl-16-[(4-methylpiperazin-1-yl)methyl]-7,8,15,16-tetrahydro-18,21-etheno-13,9-(metheno)-6,14,17-trioxa-2-thia-3,5-diazacyclononadeca[1,2,3-cd]indene-7-carboxylic Acid] | 0.339 nM | 0.047 nM | 3040 pM | 0.01 µM |  |
| COC[C@@H](COc1ccc(-c2nccc(COc3ccc4cc3C[C@H](C(=O)O)Oc3ncnc5sc(-c6ccc(F)cc6)c(c35)-c3c(C)c(Cl)c(c(Cl)c3C)O[C@H](CN3CCN(C)CC3)CO4)n2)cc1)OC [Example 136, (7R,16R)-19,23-dichloro-10-[(2-{4-[(25)-2,3-dimethoxypropoxy]phenyl}pyrimidin-4-yl)methoxy]-1-(4-fluorophenyl)-20,22-dimethyl-16-[(4-methylpiperazin-1-yl)methyl]-7,8,15,16-tetrahydro-18,21-etheno-9,13-(metheno)-6,14,17-trioxa-2-thia-3,5-diazacyclononadeca[1,2,3-cd]indene-7-carboxylic acid] | 0.758 nM | 0.027 nM | 403 pM | 0.000392 µM |  |
| COC[C@H](COc1ccc(-c2nccc(COc3ccc4cc3C[C@H](C(=O)O)Oc3ncnc5sc(-c6ccc(F)cc6)c(c35)-c3c(C)c(Cl)c(c(Cl)c3C)O[C@H](CN3CCN(C)CC3)CO4)n2)cc1)OC [Example 137, (7R,16R)-19,23-dichloro-10-[(2-{4-[(2R)-2,3-dimethoxypropoxy]phenyl}pyrimidin-4-yl)methoxy]-1-(4-fluorophenyl)-20,22-dimethyl-16-[(4-methylpiperazin-1-yl)methyl]-7,8,15,16-tetrahydro-18,21-etheno-9,13-(metheno)-6,14,17-trioxa-2-thia-3,5-diazacyclononadeca[1,2,3-cd]indene-7-carboxylic acid] | 0.999 nM | 0.031 nM | 394 pM | 0.000286 µM |  |
| CO[C@@H]1CO[C@H]2[C@@H]1OC[C@H]2OCCOCCOC1CCC(c2nccc(COc3ccc4cc3C[C@H](C(=O)O)Oc3ncnc5sc(-c6ccc(F)cc6)c(c35)-c3c(C)c(Cl)c(c(Cl)c3C)O[C@H](CN3CCN(C)CC3)CO4)n2)CC1 (stereo partly drawn) [Example 138, (7R,16R)-19,23-dichloro-1-(4-fluorophenyl)-10-[(2-{(1r,4r)-4-[2-(2-{[(3R,3aR,6R,6aR)-6-methoxyhexahydrofuro[3,2-b]furan-3-yl]oxy}ethoxy)ethoxy]cyclohexyl}pyrimidin-4-yl)methoxy]-20,22-dimethyl-16-[(4-methylpiperazin-1-yl)methyl]-7,8,15,16-tetrahydro-18,21-etheno-13,9-(metheno)-6,14,17-trioxa-2-thia-3,5-diazacyclononadeca[1,2,3-cd]indene-7-carboxylic Acid] |  | 0.007 nM | 2000 pM | 0.00221 µM | 0.049 nM |
| COCCOCCOCC1CN(c2nccc(COc3ccc4cc3C[C@H](C(=O)O)Oc3ncnc5sc(-c6ccc(F)cc6)c(c35)-c3c(C)c(Cl)c(c(Cl)c3C)O[C@H](CN3CCN(C)CC3)CO4)n2)C1 [Example 139, (7R,16R)-19,23-dichloro-1-(4-fluorophenyl)-10-{[2-(3-{[2-(2-methoxyethoxy)ethoxy]methyl}azetidin-1-yl)pyrimidin-4-yl]methoxy}-20,22-dimethyl-16-[(4-methylpiperazin-1-yl)methyl]-7,8,15,16-tetrahydro-18,21-etheno-9,13-(metheno)-6,14,17-trioxa-2-thia-3,5-diazacyclononadeca[1,2,3-cd]indene-7-carboxylic Acid] | 1.21 nM | 0.147 nM | 2310 pM | 0.00307 µM |  |
| COCCOCCOCC1CN(c2nccc(COc3ccc4cc3C[C@@H](C(=O)O)Oc3ncnc5sc(-c6ccc(F)cc6)c(c35)-c3c(C)c(Cl)c(c(Cl)c3C)O[C@H](CN3CCN(C)CC3)CO4)n2)C1 [Example 140, (7S,16R)-19,23-dichloro-1-(4-fluorophenyl)-10-{[2-(3-{[2-(2-methoxyethoxy)ethoxy]methyl}azetidin-1-yl)pyrimidin-4-yl]methoxy}-20,22-dimethyl-16-[(4-methylpiperazin-1-yl)methyl]-7,8,15,16-tetrahydro-18,21-etheno-9,13-(metheno)-6,14,17-trioxa-2-thia-3,5-diazacyclononadeca[1,2,3-cd]indene-7-carboxylic Acid] | 166 nM | 34.9 nM | 242000 pM | 0.244 µM |  |
